Assay results published in the supplement of paper PMC3974653.
Counter-ions that a name gives are not always drawn.

System: MTT (mouse pheochromocytoma)
Experiment: IC50 of cell viability (ATP content)
Settings: (24 or 48 h)
Summary of the method: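 MTT mouse pheochromocytoma cells (5 µl of 200,000 cells/ml per well, white 1536-well plates, DMEM with 5% FBS and 1% horse serum) were cultured overnight at 37°C, 5% CO2. They then received 23 nl library compound in DMSO by pintool at 8 concentrations (final 0.5 nM to 46 µM) for 24 or 48 hrs. CellTiter-Glo ATP luminescence was read after 15 minutes. Signals were normalised to positive-control (100% inhibition) and DMSO (0%) wells, and IC50 came from a four-parameter logistic fit.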

Row | SMILES | IC50 of cell viability
1 | CCCCC(CC)COC(=O)c1ccccc1C(=O)OCC(CC)CCCC (stereo not given) [Di(2-ethylhexyl) phthalate] | > 46 µM
2 | COc1cc2c(N3CCN(C(=O)Nc4ccc(OC(C)C)cc4)CC3)ncnc2cc1OCCCN1CCCCC1 [Tandutinib] | > 46 µM
3 | CCNC(=O)[C@H]1CCCN1C(=O)[C@H](CCCNC(=N)N)NC(=O)[C@H](CC(C)C)NC(=O)[C@H](CC(C)C)NC(=O)[C@@H](Cc1ccc(O)cc1)NC(=O)[C@H](CO)NC(=O)[C@@H](Cc1c[nH]c2ccccc12)NC(=O)[C@H](Cc1c[nH]cn1)NC(=O)[C@@H]1CCC(=O)N1 [Leuprolide acetate salt] | > 46 µM
4 | Cc1nnc(N[S+](=O)([O-])c2ccc(N)cc2)s1 [Sulfamethizole] | > 46 µM
5 | CCOC(=O)/C=C(C)/C=C/C=C(C)/C=C/c1c(C)cc(OC)c(C)c1C [ETRETINATE] | > 46 µM
6 | C=CCC1([C@@H](C)CCC)C(=O)NC(=O)NC1=O [S-(-)-Secobarbital] | > 46 µM
7 | CC(C)c1cccc(C(C)C)c1O [PROPOFOL] | > 46 µM
8 | Oc1nc(O)c2[nH]c(O)nc2n1 [Uric acid] | > 46 µM
9 | Oc1ncc(N(CCCl)CCCl)c(O)n1 [URACIL MUSTARD] | > 46 µM
10 | C/C=C\C(=O)N(CC)c1ccccc1C [Crotamiton] | > 46 µM
11 | CCCCC(CC)COS(=O)(=O)[O-] (stereo not given) [NATRII ETASULFAS] | > 46 µM
12 | N=C(N)NCCC[C@H](NC(=O)[C@@H]1CCCN1C(=O)[C@@H]1CSSC[C@H](N)C(=O)N[C@@H](Cc2ccc(O)cc2)C(=O)N[C@@H](Cc2ccccc2)C(=O)N[C@@H](CCC(N)=O)C(=O)N[C@@H](CC(N)=O)C(=O)N1)C(=O)NCC(N)=O [Argipressin acetate] | > 46 µM
13 | CC(C)(C)NC(=O)[C@@H]1C[C@@H]2CCCC[C@@H]2CN1C[C@@H](O)[C@H](Cc1ccccc1)NC(=O)[C@H](CC(N)=O)NC(=O)c1ccc2ccccc2n1 [Saquinavir Mesylate] | > 46 µM
14 | O=C(O)c1ccccc1-c1c2ccc(=O)cc-2oc2cc(O)ccc12 [Fluorescein sodium] | > 46 µM
15 | O=C(Cn1cnnn1)N[C@@H]1C(=O)N2C(C(=O)O)=C(CSc3nncs3)CS[C@H]12 [Ceftezole sodium] | > 46 µM
16 | CCCOc1cc(N)ccc1C(=O)OCCN(CC)CC [Propoxycaine hydrochloride] | > 46 µM
17 | NCC(O)CC(=O)O (stereo not given) [AMINOHYDROXYBUTYRIC ACID] | > 46 µM
18 | OCC(O)C(O)C(O)C(O)CO (stereo not given) [galactitol] | > 46 µM
19 | CCOC(=O)Oc1c(OC)cc(C(=O)O[C@@H]2C[C@H]3CN4CCc5c([nH]c6cc(OC)ccc56)[C@@H]4C[C@@H]3[C@@H](C(=O)OC)[C@H]2OC)cc1OC [Syrosingopine] | > 46 µM
20 | O=C(O)CCCC/C=C(\c1ccccc1)c1cccnc1 [Isbogrel] | > 46 µM

Row | SMILES | IC50 of cell viability
21 | NCCO [Ethanolamine] | > 46 µM
22 | C[C@]12CCC(=O)C[C@@H]1CC[C@@H]1[C@@H]2CC[C@]2(C)[C@@H](O)CC[C@@H]12 [5alpha-Androstan-17beta-ol-3-one] | > 46 µM
23 | O=c1[nH]c(=O)c2ccccc2o1 [Carsalam] | > 46 µM
24 | CC1\N=C(N)/OC1C2=CC=CC=C2 (stereo not drawn) [(?)-cis-(4RS,5SR)-2-Amino-4-methyl-5-phenyl-2-oxazoline] | > 46 µM
25 | COC(=O)c1ccccc1O [Methyl salicylate] | > 46 µM
26 | CC[C@H](NC(C)C)[C@H](O)C1=CC=C(O)C2=C1\C=C/C(=O)N2 [PROCATEROL] | > 46 µM
27 | Cc1ccccn1 [PICOLINE, ALPHA] | > 46 µM
28 | O=C(NCCN1CCOCC1)c1ccc(Cl)cc1 [MOCLOBEMIDE] | > 46 µM
29 | C[C@@H]1C[C@@H]2[C@@H]3C[C@@H](F)\C4=C\C(=O)\C=C/[C@]4(C)[C@@]3(F)[C@H](O)C[C@@]2(C)[C@@]1(O)C(=O)CO [Flumethasone] | > 46 µM
30 | CCCCCCCCCCCCCCCC(=O)OCCC1CCN(CCCN2c3ccccc3Sc3ccc([S+](=O)([O-])N(C)C)cc32)CC1 [Pipothiazine palmitate] | > 46 µM
31 | CCC(C)(C)C(=O)O[C@@H]1C[C@H](C)\C=C2\C=C/[C@H](C)[C@@H](CC[C@H]3C[C@@H](O)CC(=O)O3)[C@@H]12 [Simvastatin] | > 46 µM
32 | C=CC(=O)O [CARBOMER 940] | > 46 µM
33 | CCOC(=O)c1ccccc1O [Ethyl salicylate] | > 46 µM
34 | CNC(=O)c1c(I)c(C(=O)NCC(=O)Nc2c(I)c(C(=O)O)c(I)c(C(=O)NCCO)c2I)c(I)c(N(C)C(C)=O)c1I [Ioxaglic acid] | > 46 µM
35 | COC(=O)[C@@H]1CC2=CC(=O)CC[C@]2(C)[C@@]23O[C@@H]2C[C@@]2(C)[C@@H](CC[C@@]24CCC(=O)O4)[C@H]13 [Eplerenone] | > 46 µM
36 | C/C(=C(\CCO)SSCC1CCCO1)N(C=O)Cc1cnc(C)nc1N (stereo not given) [Fursultiamine] | > 46 µM
37 | CC(CCC(=O)O)C1CCC2C3C(=O)C[C@@H]4CC(=O)CC[C@@]4(C)C3CC(=O)[C@]12C (stereo not given in full) [DEHYDROCHOLIC ACID] | > 46 µM
38 | Oc1ccccc1 [Phenol] | > 46 µM
39 | Nc1cc(O)nc(N)n1 [2,4-Diamino-6-hydroxypyrimidine] | > 46 µM
40 | CCN(CC)CCSC(=O)C(c1ccccc1)c1ccccc1 [TIFENAMILUM] | > 46 µM

Row | SMILES | IC50 of cell viability
41 | Cl.O.O=C1Cc2cc(CCN3CCN(c4nsc5ccccc45)CC3)c(Cl)cc2N1 [Ziprasidone hydrochloride monohydrate] | > 46 µM
42 | NC[C@@H]1O[C@H](OC2[C@@H](CO)O[C@@H](OC3[C@H](O)[C@H](N)C[C@H](N)[C@H]3OC3O[C@H](CO)[C@@H](O)[C@H](O)[C@@H]3N)[C@H]2O)C(N)[C@H](O)[C@@H]1O (stereo not given in full) [PAROMOMYCIN SULFATE] | > 46 µM
43 | O=C(O)c1ccc(OCCn2ccnc2)cc1 [DAZOXIBENUM] | > 46 µM
44 | [Na+].[Na+].CC1(C)[C@H](CC[C@@]2(C)[C@H]1CC[C@@]3(C)[C@H]2C(=O)\C=C4\[C@H]5C[C@@](C)(CC[C@]5(C)CC[C@]34C)C([O-])=O)OC(=O)CCC([O-])=O [Carbenoxolone disodium salt] | > 46 µM
45 | CN(CCO)CC(O)Cn1cnc2c1c(=O)n(C)c(=O)n2C.O=C(O)c1cccnc1 (stereo not given) [Xanthinol niacinate] | > 46 µM
46 | CC(C)CC(NC(=O)CNC(=O)C(Cc1ccc(O)cc1)NC(=O)C(CO)NC(=O)C(Cc1c[nH]c2ccccc12)NC(=O)C(Cc1c[nH]cn1)NC(=O)C1CCC(=O)N1)C(=O)NC(CCCNC(=N)N)C(=O)N1CCCC1C(=O)NCC(N)=O (stereo not given) [GONADORELIN] | > 46 µM
47 | C=C1CC[C@@]2(O)[C@H]3Cc4ccc(O)c5c4[C@@]2(CCN3CC2CC2)[C@H]1O5 [NALMEFENE HYDROCHLORIDE] | > 46 µM
48 | Clc1ccc([C@H]2CC3CCC2N3)cn1 (stereo not given in full) [(?)-Epibatidine] | > 46 µM
49 | CC(=O)O.N=C(N)NCCCC(NC(=O)C1CCCN1C(=O)C1CSSCCC(=O)NC(Cc2ccc(O)cc2)C(=O)NC(Cc2ccccc2)C(=O)NC(CCC(N)=O)C(=O)NC(CC(N)=O)C(=O)N1)C(=O)NCC(N)=O.O.O.O (stereo not given) [DESMOPRESSIN ACETATE] | > 46 µM
50 | C=C(Nc1ccc(OCC)cc1)Nc1ccc(OCC)cc1 [Phenacaine hydrochloride] | > 46 µM
51 | CC(C)(C)NCC(O)c1ccc(O)c(CO)c1 (stereo not given) [SALBUTAMOL] | > 46 µM
52 | CCCCN(CCCC)CC(O)c1cc(Cl)cc2c1-c1ccc(Cl)cc1/C2=C/c1ccc(Cl)cc1 (stereo not given) [LUMEFANTRINE] | > 46 µM
53 | CCCCNc1ccc(C(=O)OCC[NH+](CC)CC)cc1 [Depolipon] | > 46 µM
54 | CN1CCCC[C@@H]1CCN1c2ccccc2Sc2ccc([S+](C)[O-])cc21 (stereo not given in full) [mesoridazine] | > 46 µM
55 | C[C@H](CCC(=O)O)[C@@H]1CC[C@H]2[C@@H]3[C@@H](CC[C@@]21C)[C@@]1(C)CC[C@H](O)C[C@@H]1C[C@@H]3O [Chenodiol] | > 46 µM
56 | NC(=O)c1cc([N+](=O)[O-])cc([N+](=O)[O-])c1 [NITROMIDE] | > 46 µM
57 | Oc1ccc(/C=C\c2cc(O)cc(O)c2)cc1 [Resveratrol] | > 46 µM
58 | CC(C)(S)C(=O)N[C@H](CS)C(=O)O [Bucillamine] | > 46 µM
59 | N\C1=N\C2=C(N(CC=C)C(=O)N2C3OC(CO)C(O)C3O)/C(=O)N1 (stereo not given) [LOXORIBINUM] | > 46 µM
60 | C[C@]12CC[C@H]3[C@@H](CC[C@@]45O[C@@H]4C(=O)C(C#N)C[C@]35C)[C@@H]1CC[C@@H]2O (stereo not given in full) [TRILOSTANE] | > 46 µM
